Source: patent US11925622B2, “Role of novel carbazole linked 1, 2, 3- triazole analogs in alleviating methylglyoxal-mediated late diabetic vascular complications” (priority 2021, dated 2024)
Structures can show the parent of a compound that is named as a salt.

Legend:
[1] = system: MGO-mediated BSA glycation; assay: In vitro antiglycation activity, MGO-BSA glycation assay (fluorescence); type: biochemical, bovine; details: for IC50 / % inhibition of MGO-BSA glycation: BSA 10 mg/mL, MGO 0.1 M, 24 h, 37° C.; for IC50: read-out: IC50 antiglycation, MGO-BSA model; for % inhibition of MGO-BSA glycation: compounds at 1 mM
Description: In vitro antiglycation activity: The MGO-BSA assay was performed as per optimized protocol of Jahan, H. et al with slight modifications. Initially, the antiglycation activity of parent compound carbazole (1), and carbazole-linked 1,2,3 triazoles 2-16 were identified at 1 mM using MGO-BSA model. […] BSA (10 mg/mL) incubated with MGO (0.1 M) for 24 h at 37° C. using phosphate-azide buffer (0.1 mM), served as a positive control. The wells with BSA only were taken as negative control. Whereas, rutin and quercetin were used as standard antiglycation agents. After 24 h of incubation, the fluorescence of each well was measured by using microplate reader (Varioskan lux, Thermo Fisher Scientific, 319 Scientific, USA) at 355 nm excitation, and 460 nm emission.
The % inhibition of MGO-BSA-mediated by carbazole-triazole derivatives was quantified by using the following formula: […]
The IC50 of active antiglycation compounds were identified by using EZ-FIT Enzyme Kinetics Program (Perrella Scientific Inc., Amherst, USA).

HepG2 cell line = assay: Cytotoxicity, MTT assay in hepatocytes; type: cell-based, human; details: 24 h
Description: (§1) Cytotoxicity analysis: The cytotoxic profile of the compounds was determined by using the MTT assay in hepatocytes (HepG2 cell line), and WST-1 assay in human monocytes (THP-1 cell line) as per the manufacturer's protocols. […] Doxorubicin treated cells were used as a positive control, while cells with culture medium served as negative control. Wells with culture medium served as a blank. Followed by the incubation, 20 μL of MTT were added in each well. […] The absorbance was measured by using 540, and 450 nm, respectively ([…] reader, Thermo Fisher, 319 Scientific, USA).

THP-1 cell line = assay: Cytotoxicity, WST-1 assay in human monocytes; type: cell-based; details: 24 h
Description: as §1

[2] = system: MGO-AGEs-induced ROS in THP-1 monocytes; assay: Anti-oxidation activity, DCFH-DA assay of MGO-AGEs-mediated ROS in monocytes; type: cell-based, human; details: for ROS (DCF fluorescence) in MGO-AGEs-treated monocytes: 100 μM (maximum inhibition), MGO-AGEs 50 μg/mL, 24 h
Description: Anti-oxidation activity: The measurement of effect of derivatives on AGEs-mediated ROS was based on the previously reported protocol of Soumyarani and colleagues with slight amendments. Initially, 1×10^6 monocytes/mL were loaded in sterile 96-well flat bottom black fluorescent plate, and pre-incubated with DCFH-DA (10 μM; Sigma-Aldrich Chemical Corporation, St. Louis, Missouri, USA) for 45 min at 37° C. Followed by the incubation, antiglycating, non-toxic carbazole-linked triazole derivatives (10, 30, 50, and 100 μM) were added to the wells for 1 h before co-treatment of cells with MGO-AGEs (50 μg/mL) for next 24 h. Next, the fluorometric measurement of converted DCFH into oxidized DCF product was carried out via spectrofluorimeter (Varioskanmicroplate reader, Thermo Fisher Scientific, USA) using 485 nm excitation and 520 nm emission wavelengths. Various controls were plated in each experiment. Wells containing culture RPMI with MGO-AGEs (50 μg/mL) and H2O2 ([…]) served as positive controls, while cells containing BSA were taken as negative control.

COX-2 = COX-2 protein levels analysis by immunoblotting; type: cell-based; details: human monocytes co-treated with MGO-AGEs 50 μg/mL; immunoblot densitometry
Description: COX-2 protein levels analysis: The 50 μg/mL of protein was loaded onto 10% sodium dodecyl sulfate-polymerized acrylamide gel electrophoresis (SDS-PAGE), and transferred to nitrocellulose membranes using power blotter XL System (Invitrogen; Thermo Fisher Scientific). Subsequently, the membrane was incubated for 1 h in 1% bovine serum albumin in PBS with 0.1% Tween-20 to block unspecified binding. The protein bands of the membrane were probed with primary monoclonal antibody COX-2 (Thermo Fisher Scientific, Waltham, MA, USA), and B-actin (Cloud-Clone Corp., Wuhan, China) for overnight at 4° C. Following incubation, the membrane was rinsed with tris buffer saline tween (TBST) three times, and then exposed to secondary antibody (HRP mouse mono anti-rabbit IgG; Abeam, Cambridge, UK) at room temperature for an hour. The washing was again carried three times with TBST, and then the membrane was exposed to ECL (Sangon biotech, Shanghai, China) to visualize the bands in Western Blot Detection System (Thermo Fisher Scientific, Waltham, MA, USA). The densitometry of immuno-positive COX-2, and β-actin bands was used by Image J.

[3] = system: NF-κB (p65) translocation in monocytes; assay: NF-κB (p65) translocation analysis by immunocytochemistry; type: cell-based, human; details: compounds 100 μM, 1 h pre-incubation; AGEs 50 μg/mL 1 h; MGO-AGEs control 75 RFU, BSA 11 RFU
Description: NF-κB (p^65) translocation analysis: The monocytes at the density of 1×10^6 cells/mL were pre-incubated with compounds (100 μM) for an h, and then co-incubated with AGEs (50 μg/mL) for another 1 h in a 24-well plate at 37° C. Following treatment, cells were fixed with paraformaldehyde (4% PFA; 10 min), and permeabilized with Triton X-100 (0.2%; 10 min). Next, the cells were rinsed with chilled PBS three times, and incubated with bovine serum albumin (1% BSA; 1 h) to block the non-specific binding sites. Cells were exposed to primary antibody against NF-κB (p 65) (1:300 dilution, Thermo Fisher Scientific, Waltham, MA, USA) for overnight at 4° C. Subsequently followed by washing the cells with chilled PBS three times, secondary antibody (polyclonal fluorescein isothiocyanate (FITC)-conjugated antibody) to rabbit IgG (1:1000 dilution, Abeam, Cambridge, UK) was used.
Nuclei were counterstained by using DAPI (Thermo Fisher Scientific, Waltham, MA, USA). The BSA-treated monocytes (50 μg/mL) had served as a negative control, while AGEs-treated monocytes (50 μg/mL) as positive control. All the images were taken by using Nikon microscope (Nikon, Tokyo, Japan). The quantification of images was carried out via ImageJ (Image processing and analysis in Java-NIH).

Compound: Cc1cccc(C(=O)Cn2cc(Cn3c4ccccc4c4ccccc43)nn2)c1 [Compound 8, 2-(4-((9H-Carbazole-9-yl)methyl)-1H-1,2,3-triazole-1-y1)-1-(m-tolyl)ethan-1-one]
- antiglycation activity in MGO-BSA model (in words) [1]: good activity
- IC50 [1]: 130 ± 10 µM
- % inhibition of MGO-BSA glycation [1]: 79%
- % Inhibition ± SD Hep-G2 (HepG2 cell line; 1 μM): 6.4 ± 2.2%
- % Inhibition ± SD Hep-G2 (HepG2 cell line; 10 μM): 8.7 ± 4.8%
- % Inhibition ± SD Hep-G2 (HepG2 cell line; 30 μM): 47.3 ± 2.2%
- % Inhibition ± SD Hep-G2 (HepG2 cell line; 50 μM): 54.5 ± 0.7%
- % Inhibition ± SD Hep-G2 (HepG2 cell line; 100 μM): 66.9 ± 1.9%
- % Inhibition ± SD Hep-G2 (HepG2 cell line; 250 μM): 74.1 ± 1.9%
- % Inhibition ± SD Hep-G2 (HepG2 cell line; 500 μM): 86.7 ± 5.8%
- % Inhibition ± SD THP-1 (THP-1 cell line; 1 μM): 35.5 ± 1.1%
- % Inhibition ± SD THP-1 (THP-1 cell line; 10 μM): 42.1 ± 0.4%
- % Inhibition ± SD THP-1 (THP-1 cell line; 30 μM): 43 ± 4.3%
- % Inhibition ± SD THP-1 (THP-1 cell line; 50 μM): 43.9 ± 0.7%
- % Inhibition ± SD THP-1 (THP-1 cell line; 100 μM): 46.7 ± 2.0%
- % Inhibition ± SD THP-1 (THP-1 cell line; 250 μM): 73.6 ± 1.9%
- % Inhibition ± SD THP-1 (THP-1 cell line; 500 μM): 99.5 ± 0.3%

Compound: O=C(Cn1cc(Cn2c3ccccc3c3ccccc32)nn1)c1ccccc1 [Compound 2, 2-(4-((9H-Carbazole-9-yl)methyl)-1H-1,2,3-triazole-1-y1)-1-phenylethan-1-one]
- antiglycation activity in MGO-BSA model (in words) [1]: weak potential
- IC50 [1]: 797 ± 7 µM
- % inhibition of MGO-BSA glycation [1]: 58%
- antioxidant activity / ROS production inhibition (in words) ([2]; MGO-AGEs 50 μg/mL-treated THP-1 monocytes): inactive

Compound: O=c1c(O)c(-c2ccc(O)c(O)c2)oc2cc(O)cc(O)c12 [Quercetin, 2-(3,4-dihydroxyphenyl)-3,5,7-trihydroxy-4H-chromen-4-one, reference compound]
- reduction in COX-2 levels compared to MGO-BSA-treated cells (COX-2): 1.31 fold
- IC50 [1]: 138 ± 4 µM
- % inhibition of MGO-BSA glycation [1]: 58%
- ROS (DCF fluorescence) in MGO-AGEs-treated monocytes [2]: 8.39 RFU
- NF-κB translocation in MGO-AGEs-treated monocytes [3]: 55 RFU

Compound: COc1cccc2c1C(=O)c1c(O)c3c(c(O)c1C2=O)C[C@@](O)(C(=O)CO)C[C@@H]3OC1C[C@H](N)[C@H](O)[C@H](C)O1 (stereo partly drawn) [Doxorubicin, (7S,9S)-7-[(4S,5S,6S)-4-amino-5-hydroxy-6-methyloxan-2-yl]oxy-6,9,11-trihydroxy-9-(2-hydroxyacetyl)-4-methoxy-8,10-dihydro-7H-tetracene-5,12-dione; hydrochlorid, reference compound]
- inhibition at 1 µM (HepG2 cell line; Homo sapiens, HepG2, 1 μM, read-out: % Inhibition ± SD Hep-G2): 30.4 ± 5.3%
- inhibition at 10 µM (HepG2 cell line; Homo sapiens, HepG2, 10 μM, read-out: % Inhibition ± SD Hep-G2): 28.3 ± 4.8%
- inhibition at 30 µM (HepG2 cell line; Homo sapiens, HepG2, 30 μM, read-out: % Inhibition ± SD Hep-G2): 64 ± 0.4%
- inhibition at 50 µM (HepG2 cell line; Homo sapiens, HepG2, 50 μM, read-out: % Inhibition ± SD Hep-G2): 58 ± 2.4%
- inhibition at 100 µM (HepG2 cell line; Homo sapiens, HepG2, 100 μM, read-out: % Inhibition ± SD Hep-G2): 62.6 ± 0.2%
- inhibition at 250 µM (HepG2 cell line; Homo sapiens, HepG2, 250 μM, read-out: % Inhibition ± SD Hep-G2): 69.8 ± 10%
- inhibition at 500 µM (HepG2 cell line; Homo sapiens, HepG2, 500 μM, read-out: % Inhibition ± SD Hep-G2): 87.1 ± 2.2%
- inhibition at 1 µM (THP-1 cell line; Homo sapiens, THP-1, 1 μM, read-out: % Inhibition ± SD THP-1): 34.2%
- inhibition at 10 µM (THP-1 cell line; Homo sapiens, THP-1, 10 μM, read-out: % Inhibition ± SD THP-1): 60.2 ± 0.6%
- inhibition at 30 µM (THP-1 cell line; Homo sapiens, THP-1, 30 μM, read-out: % Inhibition ± SD THP-1): 63.2 ± 0.4%
- inhibition at 50 µM (THP-1 cell line; Homo sapiens, THP-1, 50 μM, read-out: % Inhibition ± SD THP-1): 64.5 ± 2.4%
- inhibition at 100 µM (THP-1 cell line; Homo sapiens, THP-1, 100 μM, read-out: % Inhibition ± SD THP-1): 67.3 ± 0.2%
- inhibition at 250 µM (THP-1 cell line; Homo sapiens, THP-1, 250 μM, read-out: % Inhibition ± SD THP-1): 76.4 ± 10%
- inhibition at 500 µM (THP-1 cell line; Homo sapiens, THP-1, 500 μM, read-out: % Inhibition ± SD THP-1): 94.3 ± 2.3%

Compound: O=C(Cn1cc(Cn2c3ccccc3c3ccccc32)nn1)c1cccc([N+](=O)[O-])c1 [Compound 11, 2-(4-((9H-Carbazole-9-yl)methyl)-1H-1,2,3-triazole-1-y1)-1-(3-nitrophenyl)ethan-1-one]
- antiglycation activity in MGO-BSA model (in words) [1]: good activity
- IC50 [1]: 147 ± 10 µM
- % inhibition of MGO-BSA glycation [1]: 75.7%
- ROS (DCF fluorescence) in MGO-AGEs-treated monocytes [2]: 9.06 RFU

Compound: c1ccc2c(c1)c1ccccc1n2Cc1cn(Cc2ccc(Cn3cc(Cn4c5ccccc5c5ccccc54)nn3)cc2)nn1 [Compound 15, 1,4-Bis ((4-((9H-carbazol-9-yl)methyl)-1H-1,2,3-triazol-1yl)methyl) benzene]
- antiglycation activity in MGO-BSA model (in words) [1]: good activity
- IC50 [1]: 333 ± 10 µM
- % inhibition of MGO-BSA glycation [1]: 71%
- ROS (DCF fluorescence) in MGO-AGEs-treated monocytes [2]: 10.6 RFU

Compound: c1ccc2c(c1)[nH]c1ccccc12 [carbazole]
- % inhibition of MGO-BSA glycation [1]: 36.7%

Compound: Cc1ccccc1C(=O)Cn1cc(Cn2c3ccccc3c3ccccc32)nn1 [Compound 7, 2-(4-((9H-Carbazole-9-yl)methyl)-1H-1,2,3-triazole-1-y1)-1-(o-tolyl)ethan-1-one]
- antiglycation activity in MGO-BSA model (in words) [1]: good activity
- IC50 [1]: 275 ± 5 µM
- % inhibition of MGO-BSA glycation [1]: 72%
- % Inhibition ± SD Hep-G2 (HepG2 cell line; 1 μM): 12.3 ± 3.7%
- % Inhibition ± SD Hep-G2 (HepG2 cell line; 10 μM): 21.8 ± 4.7%
- % Inhibition ± SD Hep-G2 (HepG2 cell line; 30 μM): 21.8 ± 1.5%
- % Inhibition ± SD Hep-G2 (HepG2 cell line; 50 μM): 41.1 ± 3.5%
- % Inhibition ± SD Hep-G2 (HepG2 cell line; 100 μM): 50.3 ± 3.9%
- % Inhibition ± SD Hep-G2 (HepG2 cell line; 250 μM): 59.8 ± 15.5%
- % Inhibition ± SD Hep-G2 (HepG2 cell line; 500 μM): 78.4 ± 2.2%
- % Inhibition ± SD THP-1 (THP-1 cell line; 1 μM): 21 ± 8.8%
- % Inhibition ± SD THP-1 (THP-1 cell line; 10 μM): 27 ± 4.2%
- % Inhibition ± SD THP-1 (THP-1 cell line; 30 μM): 34.6 ± 6.5%
- % Inhibition ± SD THP-1 (THP-1 cell line; 50 μM): 32.1 ± 0.4%
- % Inhibition ± SD THP-1 (THP-1 cell line; 100 μM): 50.7 ± 5.3%
- % Inhibition ± SD THP-1 (THP-1 cell line; 250 μM): 80.8 ± 5.1%
- % Inhibition ± SD THP-1 (THP-1 cell line; 500 μM): 79.5 ± 5.8%
